The results in this text go back to ChEMBL document CHEMBL3507680, “University of Dundee, Gates Library screen for HepG2 cell viability”.

The series in a line: Human HepG2 cell viability assay in 384 well format. It counts as toxicity, cell-based. Further details: dose 125 nL, time 70.5 hour; cytotoxicity at 70.5 h: concentration not given beside the values. The conditions noted are these: HepG2 cells, read-out: Inhibition.
Take `O=C([C@@H]1CCO[C@@H]2CCN(CC3CC3)C[C@H]21)N1CCCCO1`: the cytotoxicity at 70.5 h was determined as 42.7%.

As for `CCN1C(=O)CC[C@]12CC[C@@H](NC(=O)NCc1cccnc1)CC2`, the cytotoxicity at 70.5 h was -4.88%.

As to `CCN1CCCC(C)(C(=O)NCCc2n[nH]c(=O)[nH]2)C1` (stereo not given), the cytotoxicity at 70.5 h was -3.84%.

Regarding `Cc1ncsc1C(=O)Nc1ccccn1`, the cytotoxicity at 70.5 h was -6.03%.

In the case of `c1coc(CN2CCc3ncnc(C4CCOC4)c3CC2)c1` (stereo not given), the cytotoxicity at 70.5 h was -9.16%.

As to `Cn1cc(CN2CCc3onc(C(=O)Nc4cccnc4)c3C2)cn1`, the cytotoxicity at 70.5 h is -3.27%.

On to `Cc1ccc(C(=O)N2CCC3(CC2)CN(c2ccccn2)CCO3)cc1`, for which the cytotoxicity at 70.5 h is -8.31%.

For the compound `COc1ccc(CN2C[C@@H](CN(C)C)[C@@H](CO)C2)c(Cl)c1OC`, the cytotoxicity at 70.5 h was -7.01%.

Take `CCN(Cc1cccc2c1OCO2)C(=O)Nc1cn[nH]c1`: the cytotoxicity at 70.5 h is -5.23%.

Take `O=C(Cc1csc(-c2cccc(Cl)c2)n1)NCc1cccc(C(=O)O)c1`: the cytotoxicity at 70.5 h was -14.3%.

Regarding `Cc1csc(CN2CCC[C@]3(C[C@H](OCC4CC4)CO3)C2)n1`, the cytotoxicity at 70.5 h stood at 1.27%.

`CSCCNC(=O)c1coc(COc2ccc3sc(C)nc3c2)n1`: the cytotoxicity at 70.5 h is -13.9%.

For the compound `N#CCc1ccc(OCC(=O)NS(=O)(=O)c2cccs2)cc1`, the cytotoxicity at 70.5 h amounted to 1.77%.

As for `CCN1CCCC2(CCN(Cc3nnc(C4CC4)o3)C2)C1=O` (stereo not given), the cytotoxicity at 70.5 h was determined as 0.731%.

With `O=C1OCCN1CCOc1nc(-c2ccccc2Cl)no1`, the cytotoxicity at 70.5 h was -4.69%.

Regarding `CC(O)CNC(=O)c1nc(Cc2c(Cl)cccc2Cl)no1` (stereo not given), the cytotoxicity at 70.5 h was -4.9%.

As for `CCOc1ccc(C(=O)NCCCNc2ncccn2)cc1`, the cytotoxicity at 70.5 h was found to be 17.7%.

On to `CC(C#N)CSc1ccccc1NCC(=O)NC(C1CC1)C1CC1` (stereo not given), for which the cytotoxicity at 70.5 h was 8.68%.

Turning to `CC(C)c1noc(C(C)N2CCC(c3nc4ccccc4o3)CC2)n1` (stereo not given), the cytotoxicity at 70.5 h was -18.9%.

As for `COc1ccc(C(=O)N2CCCC(n3cc(C)cn3)C2)c(F)c1` (stereo not given), the cytotoxicity at 70.5 h is -3.25%.

As for `COCCN1CCN(Cc2cccnc2)[C@H]2CS(=O)(=O)C[C@H]21`, the cytotoxicity at 70.5 h amounted to 21.4%.

In the case of `O=C(Cc1ccccc1)N1C[C@@H]2OCCN(CC3CCCO3)[C@@H]2C1` (stereo not given in full), the cytotoxicity at 70.5 h was -6.14%.

For `CCN(C)c1ncnc2c1CCN(C(=O)N1CCCC1)CC2`, the cytotoxicity at 70.5 h is -12.4%.

With `CN1CC(=O)N(c2ccccc2)Cc2c(NC3CC3)ncnc21`, the cytotoxicity at 70.5 h stood at 0.416%.

As for `CNC(=O)C(CCSC)NC(=O)c1ccc2ccccc2n1` (stereo not given), the cytotoxicity at 70.5 h is -11%.

In the case of `O=C(NC1CC1)c1ccnc(N2CCOC(c3ccc(Cl)cc3)C2)c1` (stereo not given), the cytotoxicity at 70.5 h worked out at 7.4%.

Regarding `Cc1ccc(Cl)cc1NCc1nc2n(n1)CCCCC2`, the cytotoxicity at 70.5 h came to 7.47%.

For `O=C(CCc1ccsc1)N1CCCC(n2cncn2)C1` (stereo not given), the cytotoxicity at 70.5 h is -11.8%.

In the case of `O=C(c1ccccn1)N1CCC2(COc3ncccc3S(=O)(=O)N2)C1` (stereo not given), the cytotoxicity at 70.5 h was -5.57%.

`Cc1cccc(S(=O)(=O)N2Cc3nccn3CC(CN(C)C)C2)c1` (stereo not given): the cytotoxicity at 70.5 h was -8.23%.

In the case of `OCc1csc(N2CCCC(COc3cccc(F)c3)C2)n1` (stereo not given), the cytotoxicity at 70.5 h was -9.22%.

Regarding `COc1ccc2c(c1)[C@@H](CCNC(C)=O)CC(C)(C)O2`, the cytotoxicity at 70.5 h is -1.01%.

Turning to `CCC(CC)c1cc(CNC(=O)N2CCOC(C)C2)on1` (stereo not given), the cytotoxicity at 70.5 h was -9.44%.

Regarding `CCn1ncc(NC(=O)CCn2ncc3c(Cl)cccc32)c1C`, the cytotoxicity at 70.5 h amounted to 7.52%.

On to `CC(C(=O)N1CCCN(Cc2cnn(C)c2)CC1)n1ccnc1` (stereo not given), for which the cytotoxicity at 70.5 h came out at 23.2%.

Consider `CC(C)(O)CN1CCN(C(=O)c2ccc3c(c2)COC3)CC1`, for which the cytotoxicity at 70.5 h was -5.78%.

For `O=C(C1CC(c2cccc(F)c2)=NO1)N1CCc2ccccc21` (stereo not given), the cytotoxicity at 70.5 h was -4.18%.

In the case of `N#Cc1ccc(NCCCN2C(=O)COc3ccccc32)nc1`, the cytotoxicity at 70.5 h is -1.32%.

Consider `Cc1noc(C2CCN(C(=O)c3ccc(N(C)C)nc3)CC2)n1`, for which the cytotoxicity at 70.5 h was -29.1%.

For the compound `NC(=O)c1csc(N2C[C@@H](CN3CCCCC3)[C@@H](CO)C2)n1`, the cytotoxicity at 70.5 h was -6.7%.

In the case of `CO[C@H]1CO[C@@]2(CCCN(S(=O)(=O)c3ccccc3)C2)C1`, the cytotoxicity at 70.5 h was -10.1%.

Turning to `Cc1cccc(OCc2nnc(SCC3CCCN(C)C3)o2)c1` (stereo not given), the cytotoxicity at 70.5 h is -5.28%.

As for `C[S+]([O-])c1nncn1CC(=O)c1ccc2c(c1)CCC2` (stereo not given), the cytotoxicity at 70.5 h turned out to be 8.46%.

`CC(C)C(C)NC(=O)Nc1ccc(CS(C)(=O)=O)cc1` (stereo not given): the cytotoxicity at 70.5 h was -8.12%.

Take `CS(=O)(=O)NCC1CCCCN1C(=O)c1cccc(C(F)(F)F)c1` (stereo not given): the cytotoxicity at 70.5 h was -0.142%.

For `CCOc1cccc(CNc2ccccc2OC)c1O`, the cytotoxicity at 70.5 h is -8.56%.

In the case of `c1ccc(-c2nccc(CNC3CCc4ncnn4C3)n2)cc1` (stereo not given), the cytotoxicity at 70.5 h is -4.99%.

As for `CCCN1CCCCCC1Cc1c(C(=O)NC)sc2ccccc12` (stereo not given), the cytotoxicity at 70.5 h was 27.8%.

In the case of `Cc1ccnc(NC(=O)c2ccc(-n3ncc(C#N)c3N)cc2)c1`, the cytotoxicity at 70.5 h was -6.86%.

For `CCOCC1CN(C(=O)c2cnoc2C)Cc2cn(C)nc21` (stereo not given), the cytotoxicity at 70.5 h is -5.33%.

With `CCC(C)N(C)CCNC(=O)c1ccccc1OCCOC` (stereo not given), the cytotoxicity at 70.5 h is -6.03%.

As for `NCC1CN(Cc2cn(CCC(N)=O)c3ccccc23)CCO1` (stereo not given), the cytotoxicity at 70.5 h stood at 2.17%.

Consider `CSc1nc2ccsc2c(=O)n1CC(=O)N1CCCCC1C` (stereo not given), for which the cytotoxicity at 70.5 h is -9.11%.

As for `CC(C)n1c(=O)c2ccccc2n(CCN(C)C)c1=O`, the cytotoxicity at 70.5 h was -8.7%.

For the compound `CCOc1cccc(COC(=O)c2cc(Cl)ccn2)n1`, the cytotoxicity at 70.5 h was determined as 25.2%.

In the case of `Cc1nc(COC[C@@]23CCC[C@@H]2CN(CC2CCOCC2)C3)cs1`, the cytotoxicity at 70.5 h is -9.04%.

`CC1CN(C(=O)NCCc2nc(C(C)C)no2)CCO1` (stereo not given): the cytotoxicity at 70.5 h was found to be 10.3%.

For the compound `Cc1cccc(-n2cc(CN3CCN(C)[C@@H]4CS(=O)(=O)C[C@@H]43)cn2)c1`, the cytotoxicity at 70.5 h was -15.9%.

Turning to `CCc1nc(CCNC(=O)C2CC2)sc1C`, the cytotoxicity at 70.5 h was -1.22%.

Regarding `CC1(C)[C@H](Cc2cc(CN3CCCCC3)on2)C[C@@H]1NC(=O)C1CC1`, the cytotoxicity at 70.5 h turned out to be 10.2%.

For `c1ccc(CCn2cc(-c3nc(CN4CCOCC4)no3)nn2)cc1`, the cytotoxicity at 70.5 h is -6.91%.

As to `Cc1ccc(N2CCC3(CCN(C(=O)c4ccccn4)CC3)CC2)nn1`, the cytotoxicity at 70.5 h is -5.97%.

Consider `CS(=O)(=O)N1CCCN(c2nccn3cnnc23)CC1`, for which the cytotoxicity at 70.5 h is -6.97%.

For the compound `CC(=O)NCC1CCC2(CCN(c3nccc(C4CCCC4)n3)CC2)O1` (stereo not given), the cytotoxicity at 70.5 h was -7.84%.

Turning to `O=C(c1cnccn1)N1C[C@@H]2[C@@H](C1)OCC(=O)N2CC1CCCC1`, the cytotoxicity at 70.5 h was 1.12%.

Regarding `Cn1cc(CN2CC[C@H]3[C@H]2CC(=O)N3Cc2ccncc2)cn1`, the cytotoxicity at 70.5 h is -15.4%.

For `c1cnc(N2CCOCC3(CCCN(CC4CCOCC4)C3)C2)nc1` (stereo not given), the cytotoxicity at 70.5 h was -1.71%.

For the compound `Nc1c(Cl)cnn1C1CCN(Cc2ccccc2)C1` (stereo not given), the cytotoxicity at 70.5 h was -3.84%.

Take `COc1ccc2cccc(CC(=O)NCCCc3n[nH]c(C)n3)c2c1`: the cytotoxicity at 70.5 h was 4.93%.

For `O=C(CC1CC1)N1CCC2(CC(=O)N(c3cccc(F)c3)C2)C1` (stereo not given), the cytotoxicity at 70.5 h was -6.99%.

On to `Cn1cc(CN2CCC3(CC2)COC(COc2ccccn2)C3)cn1` (stereo not given), for which the cytotoxicity at 70.5 h is -14.7%.

As to `Cc1cc(F)cc(S(=O)(=O)NC(=O)CCc2cncc(F)c2)c1`, the cytotoxicity at 70.5 h is -4.33%.

On to `CC(C)CCn1c(=O)nc2n1C(=O)N(c1ccc(F)cc1)C2`, for which the cytotoxicity at 70.5 h came to 22.3%.

Regarding `CC(=O)N1CCC(c2cncc(N3CCCC(O)C3)n2)CC1` (stereo not given), the cytotoxicity at 70.5 h is -4.12%.

Turning to `COc1cccc(Nc2nc(-c3ccncc3)nc3c2CNCC3)c1`, the cytotoxicity at 70.5 h turned out to be 24.2%.

As to `Cc1ccc2c(c1)OCCCC2NCc1nnc2n1CCCCC2` (stereo not given), the cytotoxicity at 70.5 h is -6.04%.

`Cc1nn(C)cc1CNC(=O)c1cn(CCC2CCCCN2)nn1` (stereo not given): the cytotoxicity at 70.5 h is -8.92%.

Regarding `CCc1noc(CN(C)CCC(=O)Nc2ccc(C#N)c(Cl)c2)n1`, the cytotoxicity at 70.5 h worked out at 0.733%.

Take `CN1CCN(c2ccc3ccc(C(=O)N4CCCO4)cn23)CC1`: the cytotoxicity at 70.5 h was -9.32%.

On to `CCCOc1ccc(CCC(=O)Nc2nonc2C)cc1`, for which the cytotoxicity at 70.5 h is -4.36%.

For `Cc1oc(-c2ccsc2)nc1CC(=O)NCCS(C)(=O)=O`, the cytotoxicity at 70.5 h is -12.9%.

Take `Fc1ccc(CN2CCCC2Cn2cccn2)c2ncccc12` (stereo not given): the cytotoxicity at 70.5 h is -10.6%.

Consider `Cc1nnc(CN(Cc2ccc(Cl)c(Cl)c2)C2CC2)o1`, for which the cytotoxicity at 70.5 h was -3.07%.

For the compound `COCCN(Cc1ccoc1)S(=O)(=O)c1cccc(C(F)(F)F)c1`, the cytotoxicity at 70.5 h was -13.5%.

With `Cc1nc(CSCCC(=O)NCc2ccc(-n3cncn3)nc2)cs1`, the cytotoxicity at 70.5 h worked out at 24.6%.

As for `Cc1ccc(F)cc1S(=O)(=O)NCc1cccc(CS(C)(=O)=O)c1`, the cytotoxicity at 70.5 h was -6.95%.

In the case of `CCOc1ccccc1C(=O)Nc1cccc(C[S+](C)[O-])c1C` (stereo not given), the cytotoxicity at 70.5 h stood at 15.1%.

As to `CC(C)NC(=O)NCCn1nc(C(F)(F)F)n(C)c1=O`, the cytotoxicity at 70.5 h was -4.05%.

For the compound `Cc1nc2c(c(NC3CCN(Cc4ccccc4)CC3)n1)CCNCC2`, the cytotoxicity at 70.5 h was found to be 0.337%.

For `CC(C)(NC(=O)c1coc(COc2cccc(F)c2)n1)C(N)=O`, the cytotoxicity at 70.5 h is -8.32%.

As for `COC(=O)CCCNC(=O)N1CCc2c(F)ccc(F)c2C1`, the cytotoxicity at 70.5 h was -1.47%.

As to `CN(C)c1nc2c(c(NCc3cc(O)ncn3)n1)CCCC2`, the cytotoxicity at 70.5 h is -4.94%.

In the case of `O=C(CCc1nccs1)N1CCC(N2CCNC2=O)CC1`, the cytotoxicity at 70.5 h is -3.7%.

Regarding `O=C(NCc1nnc2n1CCC2)c1ccc(C2CCCO2)s1` (stereo not given), the cytotoxicity at 70.5 h is -4.87%.

As to `O=C(Nc1nccs1)NC1CCOc2ccccc21` (stereo not given), the cytotoxicity at 70.5 h is -1.72%.

For `CC1CCC2(CC1)NC(=O)c1cc(Br)ccc1-n1nnnc12` (stereo not given), the cytotoxicity at 70.5 h is -4.82%.

On to `OCCCN1CCCC1c1cccc(Br)c1` (stereo not given), for which the cytotoxicity at 70.5 h is -4.27%.

As to `Cn1c(CO)cnc1SC1CCCN(c2ccccc2F)C1=O` (stereo not given), the cytotoxicity at 70.5 h was determined as 6.04%.

Consider `COc1ncccc1C(=O)N1CCCC1c1nc(-c2ccccc2)no1` (stereo not given), for which the cytotoxicity at 70.5 h is -5.54%.

As for `O=C(NC1CC1)C(c1ccccc1)N1CCn2c(nnc2C2CC2)C1` (stereo not given), the cytotoxicity at 70.5 h is 1.07%.
